From US9126999B2, “Tetrahydropyrazolopyrimidine compounds” (EISAI R&D MANAGEMENT CO., LTD., priority 2012, dated 2015)

Experiments:
[1] = test system: T1, Human TLR7/8; assay: Human PBMC cell-based assay, RNA-Ig (SL4-Ig) stimulus, cytokine ELISA; conditions: Human PBMC IL-6 Inhibition (SL4-Ig Ligand); read-out: Human PBMC IC50
T1 construct: IC50; other: Hu PBMC; ligand RNA-Ig; analyte IL-6; analyte TNFα; ligand R848; IC50 against the RNA-Ig TLR7/8 stimulus; cytokine responses to RNA-Ig complexes in vitro; potency against the RNA-Ig TLR7/8 stimulus versus HCQ
Method: Briefly, 25 ml blood was diluted with 15 ml PBS (without Ca^2+, Mg^2+) in a 50 ml conical tube, and 12 ml Histopaque was underlaid using a spinal needle. Tubes were centrifuged for 45 minutes at 1200 rpm (350×g), and PBMC were collected from the buffy coat. Cells were then washed twice in PBS, and red blood cells were lysed by suspension in 5 ml ammonium chloride solution (1× Red Blood Cell Lysis Buffer, eBioscience) for 5 minutes at room temperature.
Antagonist compounds solubilized and serial diluted in 100% DMSO were added in triplicate to cells to yield a final concentration of 0.1% DMSO (v/v). Hydroxychloroquine (Acros Organics) solubilized and serial diluted in PBS was added in triplicate to cells. […] The resulting “RNA-Ig” stimulus was incubated at room temperature for 15-30 minutes before adding to cells. PBMC were incubated with the various TLR agonists for 20 hours at 37° C., 5% CO2. Cell culture supernatants were collected, and levels of various human cytokines were assessed as indicated by standard ELISA procedure according to the manufacturer's recommended protocol (BD Biosciences, Inc., San Diego, Calif.).

[2] = target: T2, Mouse TLR7 (Mus musculus, UniProt P58681); assay: Short-term in vivo (STIV) assay: plasma IL-6 after s.c. R848
T2 construct: endogenous in cells; host or cells: female BALB/c mice, in vivo
T2 sequence (P58681 27-1050): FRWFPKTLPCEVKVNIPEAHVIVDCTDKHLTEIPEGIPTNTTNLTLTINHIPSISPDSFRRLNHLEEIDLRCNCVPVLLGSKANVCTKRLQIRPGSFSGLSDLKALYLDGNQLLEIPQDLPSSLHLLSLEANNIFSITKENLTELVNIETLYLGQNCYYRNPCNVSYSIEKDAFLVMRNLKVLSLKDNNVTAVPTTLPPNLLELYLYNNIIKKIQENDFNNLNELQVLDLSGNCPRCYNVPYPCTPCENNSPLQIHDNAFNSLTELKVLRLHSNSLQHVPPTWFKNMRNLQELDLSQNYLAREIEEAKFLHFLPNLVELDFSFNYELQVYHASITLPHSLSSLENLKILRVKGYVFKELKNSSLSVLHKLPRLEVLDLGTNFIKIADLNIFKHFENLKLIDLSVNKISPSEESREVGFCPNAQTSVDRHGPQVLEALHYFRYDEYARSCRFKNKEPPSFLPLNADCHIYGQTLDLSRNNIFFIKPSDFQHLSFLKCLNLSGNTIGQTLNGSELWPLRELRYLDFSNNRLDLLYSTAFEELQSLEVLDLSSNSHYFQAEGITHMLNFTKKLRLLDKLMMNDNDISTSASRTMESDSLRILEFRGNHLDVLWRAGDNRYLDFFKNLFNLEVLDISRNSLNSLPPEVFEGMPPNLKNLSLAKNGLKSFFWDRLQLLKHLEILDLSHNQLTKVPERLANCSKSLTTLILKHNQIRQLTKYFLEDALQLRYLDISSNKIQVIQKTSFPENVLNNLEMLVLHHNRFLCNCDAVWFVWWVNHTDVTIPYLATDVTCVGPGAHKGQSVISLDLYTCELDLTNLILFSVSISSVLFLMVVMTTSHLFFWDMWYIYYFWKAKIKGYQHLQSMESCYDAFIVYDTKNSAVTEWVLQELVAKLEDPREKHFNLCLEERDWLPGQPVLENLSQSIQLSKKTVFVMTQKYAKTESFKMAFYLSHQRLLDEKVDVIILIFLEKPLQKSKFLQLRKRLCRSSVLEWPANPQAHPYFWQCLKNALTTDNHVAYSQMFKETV
Method: Figure Legend: Female BALB/c mice were dosed by oral gavage with Vehicle alone (0.5% aqueous methyl-cellulose) or compound ER-892887 formulated in Vehicle at 100 mg/kg or 300 mg/kg. At 13 or 24 hours following oral dosing, mice were injected subcutaneously with 15 ug R848 to stimulate TLR7. Blood plasma was collected by cardiac puncture, and the IL-6 level at 1.5 hours after TLR7 stimulation was then assessed by standard ELISA procedure. Percent suppression indicated is relative to IL-6 induction following Vehicle control dosing. Statistical significance was determined by Mann-Whitney test.
To assess compound potency in vivo against mouse TLR7, a short-term in vivo (STIV) assay was utilized. Briefly, mice were orally dosed with compounds and at various time points afterwards were injected subcutaneously with agonist R848 to stimulate TLR7. The plasma IL-6 level following R848 stimulation was then measured by ELISA to assess compound potency and duration-of-action. […] Therefore, the activity of compounds in the STIV assay can be confidently attributed to their modulation of the TLR7 pathway. A single oral dose of ER-892887 at 300 mg/kg suppresses the R848/TLR7/IL-6 pathway in vivo by 80-90% for at least 24 hours (see FIG. 1).
Six to eight week old female BALB/c mice (Jackson Labs, Bar Harbor, Me.) were dosed by oral gavage in 200 ul volume with antagonist compounds formulated in 0.5% aqueous methyl-cellulose (Sigma, St. Louis, Mo.). At various time points afterwards, mice were injected subcutaneously (s.c.) in 100 ul volume with 15 ug R848 (Resiquimod; GLSynthesis, Worcester, Mass.) to stimulate TLR7. Blood plasma was collected by cardiac puncture, and levels of IL-6 at 1.5 hours after TLR7 stimulation were then assessed by standard ELISA procedure according to the manufacturer's recommended protocol (R&D Systems).

[3] = target: T2, Mouse TLR7; assay: Mouse spleen cell-based assay, R848 stimulus, IL-6 ELISA; conditions: Mouse Splenocyte IL-6 Inhibition (R848 Ligand); read-out: Mouse Splenocyte IC50
Method: Spleens were harvested from female BALB/c mice (Jackson Labs, Bar Harbor, Me.) euthanized by CO2. A single cell suspension was obtained by passing spleens through a 40 μm nylon cell strainer. Cells were washed twice with 50 ml PBS (Mediatech, Inc., Manassas, Va.) and red blood cells were lysed in 5 ml RBC Lysis buffer (eBioscience, Inc., San Diego, Calif.) for 5 minutes at room temperature. Cells were washed twice more in PBS and finally resuspended in supplemented RPMI-1640 at 2.5×10^6 cells/ml. Cells were plated at 100 μl/well (2.5×10^5 cells/well) in 96-well tissue culture treated plates (Falcon). Serial dilutions of compounds solubilized in 100% DMSO were added in triplicate to cells to yield a final concentration of 0.1% DMSO. Cells were incubated with compound for 30 minutes at 37° C., 5% CO2 before adding 100 μl/well of 740 nM R848 (Resiquimod; GLSynthesis, Worcester, Mass.) in complete media for a final concentration of 370 nM R848. Cells were incubated for 20 hours at 37° C., 5% CO2. Culture supernatants were collected, and levels of IL-6 were assessed by standard ELISA procedure according to the manufacturer's recommended protocol (BD Biosciences, Inc., San Diego, Calif.).

[4] = time point 6 hr, dose 33 mg/kg oral
[5] = time point 6 hr, dose 100 mg/kg oral
[6] = time point 6 hr, dose 300 mg/kg oral
[7] = time point 13 hr, dose 33 mg/kg oral
[8] = time point 13 hr, dose 100 mg/kg oral
[9] = time point 13 hr, dose 300 mg/kg oral
[10] = time point 24 hr, dose 100 mg/kg oral
[11] = time point 24 hr, dose 300 mg/kg oral

Compound: COc1ccc([C@@H]2C[C@H](C(F)(F)F)n3nc(C4CCNCC4)cc3N2)cc1OC [ER-885681]
- IC50 [1]: 0.173 µM
- % Suppression vs. Vehicle ([2]; time point 3 hr, dose 33 mg/kg oral): 90%
- % Suppression vs. Vehicle ([2]; time point 3 hr, dose 100 mg/kg oral): 98%
- % Suppression vs. Vehicle ([2]; time point 3 hr, dose 300 mg/kg oral): 99%
- % Suppression vs. Vehicle [2, 4]: 42%
- % Suppression vs. Vehicle [2, 5]: 81%
- % Suppression vs. Vehicle [2, 6]: 96%
- % Suppression vs. Vehicle [2, 7]: 0%
- % Suppression vs. Vehicle [2, 8]: 7%
- % Suppression vs. Vehicle [2, 9]: 50%

Compound: COc1ccc(C2CC(C(F)(F)F)n3nc(-c4ccc(C(=O)NC5CCNC5)nc4)cc3N2)cc1OC (centres unmarked) [ER-895810]
- IC50 [1]: 0.027 µM

Compound: COc1ccc(C2CC(C(F)(F)F)n3nc(-c4ccc(C(=O)N5CCNCC5)nc4)cc3N2)cc1OC (centres unmarked) [ER-896133]
- IC50 [1]: 0.064 µM

Compound: COc1ccc(C2CC(C(F)(F)F)n3nc(-c4ccc(C(=O)NC5CCNC5)nc4)cc3N2)cc1OC (centres unmarked) [ER-895809]
- IC50 [1]: 0.021 µM

Compound: COc1ccc([C@H]2C[C@@H](C(F)F)n3nc(-c4ccc(C(=O)N5CCNCC5)cc4)cc3N2)cc1OC [ER-895303]
- IC50 [1]: 0.023 µM
- IC50 [3]: 0.27 µM
- % Suppression vs. Vehicle [2, 4]: 92%
- % Suppression vs. Vehicle [2, 7]: 0%
- % Suppression vs. Vehicle [2, 8]: 18%
- % Suppression vs. Vehicle [2, 9]: 90%
- % Suppression vs. Vehicle [2, 10]: 0%
- % Suppression vs. Vehicle [2, 11]: 60%

Compound: COc1ccc(C2CC(C(F)(F)F)n3nc(C(=O)N4CCNCC4)cc3N2)cc1OC (centres unmarked) [ER-896452]
- IC50 [1]: 0.049 µM

Compound: COc1ccc([C@H]2C[C@@H](C(F)(F)F)n3nc(C4CCNCC4)cc3N2)cc1OC [ER-885682]
- IC50 [1]: 0.357 µM

Compound: COc1ccc(C2CC(C(F)(F)F)n3nc(-c4ccc(C(=O)NC5CCCNC5)nc4)cc3N2)cc1OC (centres unmarked) [ER-896135]
- IC50 [1]: 0.018 µM

Compound: COc1ccc(C2CC(C(F)(F)F)n3nc(-c4cccc(C(=O)NC5CCNC5)c4)cc3N2)cc1OC (centres unmarked) [ER-895811]
- IC50 [1]: 0.111 µM

Compound: COc1ccc(C2CC(C(F)(F)F)n3nc(C4CCNCC4)cc3N2)cc1OC (centres unmarked) [ER-887084]
- IC50 [1]: 0.101 µM

Compound: COc1ccc([C@@H]2C[C@H](C(F)F)n3nc(-c4ccc(C(=O)N5CCNCC5)cc4)cc3N2)cc1OC [ER-895302]
- IC50 [1]: 0.025 µM
- IC50 [3]: 0.12 µM
- % Suppression vs. Vehicle [2, 4]: 93%
- % Suppression vs. Vehicle [2, 5]: 99%
- % Suppression vs. Vehicle [2, 6]: 99%
- % Suppression vs. Vehicle [2, 7]: 14%
- % Suppression vs. Vehicle [2, 8]: 16%
- % Suppression vs. Vehicle [2, 9]: 91%
- % Suppression vs. Vehicle ([2]; time point 24 hr, dose 33 mg/kg oral): 30%
- % Suppression vs. Vehicle [2, 10]: 0%
- % Suppression vs. Vehicle [2, 11]: 37%

Compound: COc1ccc(C2CC(C(F)(F)F)n3nc(-c4cccc(C(=O)N5CCNCC5)c4)cc3N2)cc1OC (centres unmarked) [ER-896388]
- IC50 [1]: 0.122 µM

Compound: Cc1nn(C)cc1[C@@H]1C[C@H](C(F)(F)F)n2nc(-c3ccc4nn(C)cc4c3)cc2N1 [ER-893990]
- IC50 [1]: 4.46 µM
- IC50 [3]: 3.92 µM

Compound: COc1ccc(C2CC(C(F)F)n3nc(-c4ccc(C(=O)N5CCNCC5)cc4)cc3N2)cc1OC (racemic) [ER-894466]
- IC50 [1]: 0.043 µM
- IC50 [3]: 0.42 µM

Compound: 5-(3,4-dimethoxyphenyl)-2-(6-methyl-1,2,3,6-tetrahydropyridin-4-yl)-7-(trifluoromethyl)-4,5,6,7-tetrahydropyrazolo[1,5-a]pyrimidine hydrochloride and 5-(3,4-dimethoxyphenyl)-2-(2-methyl-1,2,3,6-tetrahydropyridin-4-yl)-7-(trifluoromethyl)-4,5,6,7-tetrahydropyrazolo[1,5-a]pyrimidine hydrochloride [ER-896993]
- IC50 [1]: 0.038 µM

Compound: COc1ccc(C2CC(C(F)(F)F)n3nc(-c4ccc(C(=O)NC5CCNCC5)nc4)cc3N2)cc1OC (centres unmarked) [ER-896134]
- IC50 [1]: 0.012 µM
